For one test, the target named is HIV-1 protease (Human immunodeficiency virus type 1 group M subtype B, UniProt P04585). Put plainly: biochemical. The settings on record: Table 12; HIV-1 protease; read-out: Ki.
A further test concerns HIV-1 (strain IIIB). Put plainly: microbe, parasite or virus in culture. It is filed as cell-based. The settings on record: Human immunodeficiency virus 1, IIIB, MT4, Table 12; anti-viral potency in MT-4 cells; read-out: IC50.

Here are results for 22 compounds from patent US6617350B2, “Inhibitors of aspartyl protease” (priority 1999, dated 2003).

By Ki is commonly meant a measure of affinity in units of concentration, obtained from inhibition or displacement. What is called IC50 is the point on the concentration scale where inhibition reaches its midpoint.

Molecules are shown by their SMILES. Bounds are passed on as bounds.

As to `CC(C)(CCCCN)CN(CC(O)C(Cc1ccccc1)NC(=O)OC1COC2OCCC12)S(=O)(=O)c1ccc2c(c1)OCO2` [Compound 244, (3R,3aS,6aR)hexahydrofuro[2,3-b]furan-3-yl N-(1S,2R)-3-[(6-amino-2,2-dimethylhexyl)(1,3-benzodioxol-5-ylsulfonyl)amino]-1-benzyl-2-hydroxypropylcarbamate], the Ki at HIV-1 protease is less than 0.001 µM. Further, the IC50 with HIV-1 (strain IIIB) fell in the range of 0.1 to 0.5 µM.
The matching figures for `CC(C)(CCCCN)CN(CC(O)C(Cc1ccccc1)NC(=O)OC1COC2OCCC12)S(=O)(=O)c1ccc2c(c1)OCCO2` [Compound 245, (3R,3aS,6aR)hexahydrofuro[2,3-b]furan-3-yl N-(1S,2R)-3-[(6-amino-2,2-dimethylhexyl)(2,3-dihydro-1,4-benzodioxin-6-ylsulfonyl)amino]-1-benzyl-2-hydroxypropylcarbamate]: less than 0.001 µM and 0.1 to 0.5 µM.
The matching figures for `CNc1cccc(S(=O)(=O)N(C[C@@H](O)[C@H](Cc2ccccc2)NC(=O)O[C@H]2CO[C@H]3OCC[C@H]32)CC(C)(C)CCCCNC(=O)OC)c1` [Compound 246, (3R,3aS,6aR)hexahydrofuro[2,3-b]furan-3-yl N-[(1S,2R)-1-benzyl-2-hydroxy-3-(6-[(methoxycarbonyl)amino]-2,2-dimethylhexyl[3-(methylamino)phenyl]sulfonylamino)propyl]carbamate]: less than 0.001 µM and no more than 0.1 µM.
Turning to `CNc1cccc(S(=O)(=O)N(C[C@@H](O)[C@H](Cc2ccccc2)NC(=O)O[C@H]2CO[C@H]3OCC[C@H]32)CC(C)(C)CCCCNC(=O)N(C)C)c1` [Compound 247, (3R,3aS,6aR)hexahydrofuro[2,3-b]furan-3-yl N-[(1S,2R)-1-benzyl-3-((6-[(dimethylamino)carbonyl]amino-2,2-dimethylhexyl)[3-(methylamino)phenyl]sulfonylamino)-2-hydroxypropyl]carbamate], the Ki at HIV-1 protease was less than 0.001 µM. In addition, the IC50 with HIV-1 (strain IIIB) is no more than 0.1 µM.
Take `COC(=O)NCCCCC(C)(C)CN(C[C@@H](O)[C@H](Cc1ccccc1)NC(=O)O[C@H]1CO[C@H]2OCC[C@H]21)S(=O)(=O)c1ccc2c(c1)OCO2` [Compound 248, (3R,3aS, 6aR)hexahydrofuro[2,3-b]furan-3-yl N-[(1S,2R)-3-((1,3-benzodioxol-5-ylsulfonyl)6-[(methoxycarbonyl)amino]-2,2-dimethylhexylamino)-1-benzyl-2-hydroxypropyl]carbamate]: on HIV-1 protease, the Ki was less than 0.001 µM. Moreover, the IC50 in the test on HIV-1 (strain IIIB) is no more than 0.1 µM.
Regarding `CN(C)C(=O)NCCCCC(C)(C)CN(CC(O)C(Cc1ccccc1)NC(=O)OC1COC2OCCC12)S(=O)(=O)c1ccc2c(c1)OCO2` [Compound 249, (3R,3aS,6aR)hexahydrofuro[2,3-b]furan-3-yl N-(1S,2R)-3-[(1,3-benzodioxol-5-ylsulfonyl)(6-[(dimethylamino)carbonyl]amino-2,2-dimethylhexyl)amino]-1-benzyl-2-hydroxypropylcarbamate], the Ki at HIV-1 protease was less than 0.001 µM. Further, the IC50 in the test on HIV-1 (strain IIIB) was no more than 0.1 µM.
Consider `COC(=O)NCCCCC(C)(C)CN(C[C@@H](O)[C@H](Cc1ccccc1)NC(=O)O[C@H]1CO[C@H]2OCC[C@H]21)S(=O)(=O)c1ccc2c(c1)OCCO2` [Compound 250, (3R,3aS,6aR)hexahydrofuro[2,3-b]furan-3-yl N-[(1S,2R)-1-benzyl-3-((2,3-dihydro-1,4-benzodioxin-6-ylsulfonyl)6-[(methoxycarbonyl)amino]-2,2-dimethylhexylamino)-2-hydroxypropyl]carbamate], for which, on HIV-1 protease, the Ki is less than 0.001 µM. For the same compound, the IC50 with HIV-1 (strain IIIB) was no more than 0.1 µM.
The matching figures for `CN(C)C(=O)NCCCCC(C)(C)CN(CC(O)C(Cc1ccccc1)NC(=O)OC1COC2OCCC12)S(=O)(=O)c1ccc2c(c1)OCCO2` [Compound 251, (3R,3aS,6aR)hexahydrofuro[2,3-b]furan-3-yl N-(1S,2R)-1-benzyl-3-[(2,3-dihydro-1,4-benzodioxin-6-ylsulfonyl)(6-[(dimethylamino)carbonyl]amino-2,2-dimethylhexyl)amino]-2-hydroxypropylcarbamate]: less than 0.001 µM and no more than 0.1 µM.
The matching figures for `CC(=O)CCC(C)(C)CN(CC(O)[C@H](Cc1ccccc1)NC(=O)OC1COC2OCCC12)S(=O)(=O)c1ccc2c(c1)OCCO2` (stereo partly drawn) [Compound 252, (3R,3aS,6aR)-Hexahydrofuro[2,3-b]furan-3-yl N-((1S,2R)-3-(1,4-benzodioxan-6-sulfonyl)(2,2-dimethyl-5-oxohexyl)amino-1-benzyl-2-hydroxypropyl)carbamate]: less than 0.001 µM and no more than 0.1 µM.
Regarding `CC(=O)CCC(C)(C)CN(CC(O)[C@H](Cc1ccccc1)NC(=O)OC1COC2OCCC12)S(=O)(=O)c1cccc(N)c1` (some centres unmarked) [Compound 253], the Ki at HIV-1 protease is less than 0.001 µM. For the same compound, the IC50 in the test on HIV-1 (strain IIIB) was no more than 0.1 µM.
For `CC(=O)CCC(C)(C)CN(CC(O)[C@H](Cc1ccccc1)NC(=O)OC1COC2OCCC12)S(=O)(=O)c1cccc(N(C)C)c1` (some centres unmarked) [Compound 254], the Ki on HIV-1 protease is less than 0.001 µM. The IC50 in the test on HIV-1 (strain IIIB) was no more than 0.1 µM.
The like results for `CC(C)(CCCCNS(C)(=O)=O)CN(C[C@@H](O)[C@H](Cc1ccccc1)NC(=O)O[C@H]1CO[C@H]2OCC[C@H]21)S(=O)(=O)c1ccc2c(c1)OCO2` [Compound 255, (3R,3aS,6aR)hexahydrofuro[2,3-b]furan-3-yl N-[(1S,2R)-3-((1,3-benzodioxol-5-ylsulfonyl)2,2-dimethyl-6-[(methylsulfonyl)amino]hexylamino)-1-benzyl-2-hydroxypropyl]carbamate] were, in that order, less than 0.001 µM and no more than 0.1 µM.
The like results for `CC(C)(CCCCNS(C)(=O)=O)CN(C[C@@H](O)[C@H](Cc1ccccc1)NC(=O)O[C@H]1CO[C@H]2OCC[C@H]21)S(=O)(=O)c1ccc2c(c1)OCCO2` [Compound 256, (3R,3aS,6aR)hexahydrofuro[2,3-b]furan-3-yl N-[(1S,2R)-1-benzyl-3-((2,3-dihydro-1,4-benzodioxin-6-ylsulfonyl)2,2-dimethyl-6-[(methylsulfonyl)amino]hexylamino)-2-hydroxypropyl]carbamate] were, in that order, less than 0.001 µM and no more than 0.1 µM.
The like results for `CC(C)(CCCN)CN(CC(O)C(Cc1ccccc1)NC(=O)OC1COC2OCCC12)S(=O)(=O)c1ccc2c(c1)OCO2` [Compound 257, 3R,3aS,6aR)hexahydrofuro[2,3-b]furan-3-yl N-(1S,2R)-3-[(5-amino-2,2-dimethylpentyl)(1,3-benzodioxol-5-ylsulfonyl)amino]-1-benzyl-2-hydroxypropylcarbamate] were, in that order, less than 0.001 µM and 0.1 to 0.5 µM.
With `CNc1cccc(S(=O)(=O)N(C[C@@H](O)[C@H](Cc2ccccc2)NC(=O)O[C@H]2CO[C@H]3OCC[C@H]32)CC(C)(C)CCCN)c1` [Compound 258, (3R,3aS,6aR)hexahydrofuro[2,3-b]furan-3-yl N-[(1S,2R)-3-((5-amino-2,2-dimethylpentyl)[3-(methylamino)phenyl]sulfonylamino)-1-benzyl-2-hydroxypropyl]carbamate], the Ki at HIV-1 protease was less than 0.001 µM. For the same compound, in the test with HIV-1 (strain IIIB), the IC50 was 0.1 to 0.5 µM.
Regarding `COc1ccc(S(=O)(=O)N(CC(O)[C@H](Cc2ccccc2)NC(=O)OC2COC3OCCC23)CC(C)(C)CCCC(C)=O)cc1` (some centres unmarked) [Compound 259], the Ki at HIV-1 protease is less than 0.001 µM. The IC50 in the test on HIV-1 (strain IIIB) is no more than 0.1 µM.
Consider `C/C(CCC(C)(C)CN(CC(O)[C@H](Cc1ccccc1)NC(=O)OC1COC2OCCC12)S(=O)(=O)c1ccc2c(c1)OCO2)=N\O` (stereo partly drawn) [Compound 260, (3R,3aS,6aR)-Hexahydrofuro[2,3-b]furan-3-yl N-((1S,2R)-1-benzyl-3-(2,2-dimethyl-5-hydroxyiminohexyl)[(3,4-methylenedioxyphenyl)sulfonyl]amino-2-hydroxypropyl)carbamate], for which the Ki on HIV-1 protease is less than 0.001 µM. Besides, in the test with HIV-1 (strain IIIB), the IC50 was no more than 0.1 µM.
Consider `CO/N=C(\C)CCC(C)(C)CN(CC(O)[C@H](Cc1ccccc1)NC(=O)OC1COC2OCCC12)S(=O)(=O)c1ccc2c(c1)OCO2` (stereo partly drawn) [Compound 261, (3R,3aS,6aR)-Hexahydrofuro[2,3-b]furan-3-yl-N-((1S,2R)-1-benzyl-3-(2,2-dimethyl-5-methoxyiminohexyl)[(3,4-methylenedioxyphenyl)sulfonyl]amino-2-hydroxypropyl)carbamate], for which, on HIV-1 protease, the Ki was less than 0.001 µM. In addition, in the test on HIV-1 (strain IIIB), the IC50 was no more than 0.1 µM.
The matching figures for `CC(C)(CCCN)CN(CC(O)C(Cc1ccccc1)NC(=O)OC1COC2OCCC12)S(=O)(=O)c1ccc2c(c1)OCCO2` [Compound 262, (3R,3aS,6aR)hexahydrofuro[2,3-b]furan-3-yl N-(1S,2R)-3-[(5-amino-2,2-dimethylpentyl)(2,3-dihydro-1,4-benzodioxin-6-ylsulfonyl)amino]-1-benzyl-2-hydroxypropylcarbamate]: less than 0.001 µM and 0.1 to 0.5 µM.
The like results for `COC(=O)NCCCC(C)(C)CN(C[C@@H](O)[C@H](Cc1ccccc1)NC(=O)O[C@H]1CO[C@H]2OCC[C@H]21)S(=O)(=O)c1ccc2c(c1)OCO2` [Compound 263, (3R,3aS,6aR)hexahydrofuro[2,3-b]furan-3-yl N-[(1S,2R)-3-((1,3-benzodioxol-5-ylsulfonyl)5-[(methoxycarbonyl)amino]-2,2-dimethylpentylamino)-1-benzyl-2-hydroxypropyl]carbamate] were, in that order, less than 0.001 µM and no more than 0.1 µM.
The matching figures for `CNc1cccc(S(=O)(=O)N(C[C@@H](O)[C@H](Cc2ccccc2)NC(=O)O[C@H]2CO[C@H]3OCC[C@H]32)CC(C)(C)CCCNC(=O)OC)c1` [Compound 264, (3R,3aS,6aR)hexahydrofuro[2,3-b]furan-3-yl N-[(1S,2R)-1-benzyl-2-hydroxy-3-(5-[(methoxycarbonyl)amino]-2,2-dimethylpentyl[3-(methylamino)phenyl]sulfonylamino)propyl]carbamate]: less than 0.001 µM and no more than 0.1 µM.
As for `COC(=O)NCCCC(C)(C)CN(C[C@@H](O)[C@H](Cc1ccccc1)NC(=O)O[C@H]1CO[C@H]2OCC[C@H]21)S(=O)(=O)c1ccc2c(c1)OCCO2` [Compound 265, (3R,3aS,6aR)hexahydrofuro[2,3-b]furan-3-yl N-[(1S,2R)-1-benzyl-3-((2,3-dihydro-1,4-benzodioxin-6-ylsulfonyl)5-[(methoxycarbonyl)amino]-2,2-dimethylpentylamino)-2-hydroxypropyl]carbamate], on HIV-1 protease, the Ki is less than 0.001 µM. Also, in the test on HIV-1 (strain IIIB), the IC50 is no more than 0.1 µM.
